Experiments:
[1] = tested on: cultured human mast cells (CHMC); experiment: CHMC low cell density IgE activation: tryptase and LTC4 assays; type: cell-based; settings: Homo sapiens, Mast cell, Low Density CHMC, anti-IgE activation, tryptase readout; read-out: CHMC anti-IgE Tryptase
Outline: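 Cultured human mast cells at low density (1000-1500 per well) rested 1 h at 37° C, then stimulated with anti-IgE for 30 min at 37° C. Supernatant tryptase measured with fluorogenic substrate (30 min, room temperature); LTC4 quantified by ELISA on diluted supernatant.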

[2] = tested on: cultured human mast cells (CHMC); experiment: CHMC low cell density ionomycin activation: tryptase assay; type: cell-based; settings: Homo sapiens, Mast cell, Low Density CHMC, ionomycin activation, tryptase readout; read-out: CHMC Ionomycin Tryptase

IC50 [1] [µM] | IC50 [2] [µM] | SMILES
0.401 | 6.82 | Cc1cc(Nc2ncc(F)c(Nc3cccc(C(C)(C)C)c3)n2)cc(Cl)c1O [Compound R940271, N4-(3-tert-Butylphenyl)-N2-(3-chloro-4-hydroxy-5-methylphenyl)-5-fluoro-2,4-pyrimidinediamine]
0.862 | > 10 | CC(C)(C)C(=O)Nc1cccc(Nc2ncc(F)c(Nc3cccc(O)c3)n2)c1 [Compound R940275, N2-(3-tert-Butylcarbonylaminophenyl)-N4-(3-hydroxyphenyl)-5-fluoro-2,4-pyrimidinediamine]
0.525 | 5.53 | COC(=O)c1cc2cc(Nc3ncc(F)c(Nc4cccc(C(C)(C)C)c4)n3)ccc2o1 [Compound R940281, N4-(3-tert-Butylphenyl)-5-fluoro-N2-(2-methoxycarbonylbenzofur-5-yl)-2,4-pyrimidinediamine]
0.553 | 4.98 | COC(=O)c1cc2cc(Nc3ncc(F)c(Nc4cccc(C(C)C)c4)n3)ccc2o1 [Compound R940283, 5-fluoro-N4-(3-isopropylphenyl)-N2-(2-methoxycarbonylbenzofur-5-yl)-2,4-pyrimidinediamine]
0.396 | > 10 | CNC(=O)c1cc2cc(Nc3ncc(F)c(Nc4cccc(C(C)(C)C)c4)n3)ccc2o1 [Compound R940291, N4-(3-tert-Butylphenyl)-5-fluoro-N2-[2-(N-methylamino)carbonylbenzofur-5-yl]-2,4-pyrimidinediamine]
3.46 | 10 | CC(C)c1cccc(Nc2ncc(F)c(Nc3cccc(C(C)C)c3)n2)c1 [Compound R940297, N2,N4-Bis(3-isopropylphenyl)-5-fluoro-2,4-pyrimidinediamine]
1.98 | > 10 | COC(=O)c1cc(Nc2ncc(F)c(Nc3cccc(O)c3)n2)ccc1OC [Compound R940301, 5-Fluoro-N4-(3-hydroxyphenyl)-N2-(3-methyloxycarbonyl-4-methoxyphenyl)-2,4-pyrimidinediamine]
> 10 | > 10 | CNC(=O)c1cc(Nc2nc(NC)ncc2F)ccc1OC [Compound R940304, 5-Fluoro-N4-(3-methylaminocarbonyl-4-methoxyphenyl)-N2-methyl-2,4-pyrimidinediamine]
1.85 | > 10 | COC(=O)c1ccc(Nc2ncc(F)c(Nc3ccc(C(=O)OC)cc3)n2)cc1 [Compound R945034, N2,N4-Bis(4-methoxycarbonylphenyl)-5-fluoro-2,4-pyrimidinediamine]
> 10 | > 10 | COC(=O)c1cccc(Nc2ncc(F)c(Nc3cccc(C(=O)OC)c3)n2)c1 [Compound R945035, N2,N4-Bis(3-methoxycarbonylphenyl)-5-fluoro-2,4-pyrimidinediamine]
> 10 | > 10 | O=C(O)c1cccc(Nc2ncc(F)c(Nc3cccc(C(=O)O)c3)n2)c1 [Compound R945036, N2,N4-Bis(3-carboxyphenyl)-5-fluoro-2,4-pyrimidinediamine]
> 10 | > 10 | O=C(O)c1ccc(Nc2ncc(F)c(Nc3ccc(C(=O)O)cc3)n2)cc1 [Compound R945037, N2,N4-Bis(4-carboxyphenyl)-5-fluoro-2,4-pyrimidinediamine]
> 10 | > 10 | O=C(O)c1cc(Nc2ncc(F)c(Nc3ccc(O)c(C(=O)O)c3)n2)ccc1O [Compound R945041, N2,N4-Bis(3-carboxy-4-hydroxyphenyl)-5-fluoro-2,4-pyrimidinediamine]
> 10 | > 10 | COC(=O)c1cc(Nc2ncc(F)c(Nc3ccc(O)c(C(=O)OC)c3)n2)ccc1O [Compound R945043, N2,N4-Bis(4-hydroxy-3-methoxycarbonylphenyl)-5-fluoro-2,4-pyrimidinediamine]
> 10 | > 10 | CCNC(=O)Nc1cccc(Nc2ncc(F)c(Nc3cccc(NC(=O)NCC)c3)n2)c1 [Compound R945045, N2,N4-Bis[3-(ethylaminocarbonylamino)phenyl]-5-fluoro-2,4-pyrimidinediamine]
10 | > 10 | COC(=O)c1ccc(Nc2ncc(F)c(Nc3ccc(C(=O)OC)c(O)c3)n2)cc1O [Compound R945056, N2,N4-Bis[3-hydroxy-4-(methoxycarbonyl)phenyl]-5-fluoro-2,4-pyrimidinediamine]
10 | > 10 | O=C(O)c1ccc(Nc2ncc(F)c(Nc3ccc(C(=O)O)c(O)c3)n2)cc1O [Compound R945061, N2,N4-Bis(3-hydroxy-4-carboxyphenyl)-5-fluoro-2,4-pyrimidinediamine]
1.43 | > 10 | COC(=O)c1ccc(Nc2ncc(F)c(Nc3ccc(C(=O)OC)c(OC)c3)n2)cc1OC [Compound R945065, N2,N4-Bis(3-methoxy-4-methoxycarbonylphenyl)-5-fluoro-2,4-pyrimidinediamine]

Further lines, the compound ahead of its results:

SMILES | IC50 [1] [µM] | IC50 [2] [µM]
COc1ccc(Nc2nc(NCCN3CCN(Cc4ccccc4)CC3)ncc2F)cc1OC [Compound R940262, N2-[2-(N-Benzylpiperazino)ethyl]-N4-(3,4-dimethoxyphenyl)-5-fluoro-2,4-pyrimidinediamine] | > 10 | > 10
Cc1c(O)cccc1Nc1ncc(F)c(Nc2cccc(O)c2C)n1 [Compound R945038, N2,N4-Bis(3-hydroxy-2-methylphenyl)-5-fluoro-2,4-pyrimidinediamine] | > 10 | > 10
CCNC(=O)Nc1ccc(Nc2ncc(F)c(Nc3ccc(NC(=O)NCC)cc3)n2)cc1 [Compound R945040, N2,N4-Bis[4-(ethylaminocarbonylamino)phenyl]-5-fluoro-2,4-pyrimidinediamine] | > 10 | > 10
N#Cc1cccc(Nc2ncc(F)c(Nc3cccc(C#N)c3)n2)c1 [Compound R945051, N2,N4-Bis(3-cyanophenyl)-5-fluoro-2,4-pyrimidinediamine] | 0.95 | > 10
N#Cc1ccc(Nc2ncc(F)c(Nc3ccc(C#N)cc3)n2)cc1 [Compound R945057, N2,N4-Bis(4-cyanophenyl)-5-fluoro-2,4-pyrimidinediamine] | 10 | > 10
N#Cc1cccc(Nc2nc(Nc3cccc(O)c3)ncc2F)c1 [Compound R945109, N4-(3-Cyanophenyl)-5-fluoro-N2-(3-hydroxyphenyl)-2,4-pyrimidinediamine] | 1.02 | > 10
Oc1cccc(Nc2nc(NCCc3c[nH]c4ccccc34)ncc2F)c1 [Compound R945117, 5-Fluoro-N4-(3-hydroxyphenyl)-N2-[2-(indol-3-yl)ethyl]-2,4-pyrimidinediamine] | 4.08 | > 10
OCCOc1ccc(Nc2ncc(F)c(Nc3ccc4c(c3)OCCO4)n2)cc1 [Compound R945144, N4-(3,4-Ethylenedioxyphenyl)-5-fluoro-N2-[4-(2-hydroxyethyloxy)phenyl]-2,4-pyrimidinediamine] | 0.244 | > 10
Fc1cnc(NCc2csc3ccccc23)nc1NCc1csc2ccccc12 [Compound R945145, N2,N4-Bis(benzothiophen-3-ylmethyl)-5-fluoro-2,4-pyrimidinediamine] | > 10 | > 10
Oc1cccc(Nc2ncc(F)c(NCc3csc4ccccc34)n2)c1 [Compound R945146, N4-(Benzothiophen-3-ylmethyl)-5-fluoro-N2-(3-hydroxyphenyl)-2,4-pyrimidinediamine] | 3.76 | > 10
Oc1cccc(Nc2ncc(F)c(NCc3cccnc3)n2)c1 [Compound R945147, 5-Fluoro-N2-(3-hydroxyphenyl)-N4-(3-pyridylmethyl)-2,4-pyrimidinediamine] | 3.55 | > 10
Cc1cc(CNc2nc(Nc3cccc(O)c3)ncc2F)c(C)o1 [Compound R945151, N4-[(2,5-Dimethyl-3-furyl)methyl]-5-fluoro-N2-(3-hydroxyphenyl)-2,4-pyrimidinediamine] | 4.07 | > 10
Fc1cnc(Nc2ccc(N3CCN(Cc4ccccc4)CC3)cc2)nc1Nc1ccc(N2CCN(Cc3ccccc3)CC2)cc1 [Compound R945152, N2,N4-Bis[4-(N-benzylpiperazino)phenyl]-5-fluoro-2,4-pyrimidinediamine] | 6.94 | > 10
Fc1cnc(Nc2ccc3c(c2)OCCO3)nc1Nc1ccc(N2CCN(Cc3ccccc3)CC2)cc1 [Compound R945155, N4-[4-(N-Benzylpiperazino)phenyl]-N2-(3,4-ethylenedioxyphenyl)-5-fluoro-2,4-pyrimidinediamine] | 1.88 | > 10
Cc1cc(CNc2ncc(F)c(Nc3cccc(O)c3)n2)c(C)o1 [Compound R945162, N2-[(2,5-Dimethyl-3-furyl)methyl]-5-fluoro-N4-(3-hydroxyphenyl)-2,4-pyrimidinediamine] | > 10 | > 10
Fc1cnc(Nc2ccc(N3CCN(Cc4ccccc4)CC3)cc2)nc1Nc1ccc2c(c1)OCCO2 [Compound R945163, N2-[4-(N-Benzylpiperazino)phenyl]-N4-(3,4-ethylenedioxyphenyl)-5-fluoro-2,4-pyrimidinediamine] | 0.922 | 4.25
Oc1cccc(Nc2nc(NCc3csc4ccccc34)ncc2F)c1 [Compound R945164, N2-(Benzothiophen-3-ylmethyl)-5-fluoro-N4-(3-hydroxyphenyl)-2,4-pyrimidinediamine] | 10 | > 10
Oc1cccc(Nc2nc(NCc3cccnc3)ncc2F)c1 [Compound R945165, 5-Fluoro-N4-(3-hydroxyphenyl)-N2-(3-pyridylmethyl)-2,4-pyrimidinediamine] | > 10 | > 10
Oc1cccc(Nc2nc(NCc3ccccn3)ncc2F)c1 [Compound R945166, 5-Fluoro-N4-(3-hydroxyphenyl)-N2-(2-pyridylmethyl)-2,4-pyrimidinediamine] | > 10 | > 10
